Consider one substance from publication PMC11190223, “Identification of sulfakinin receptor regulating feeding behavior and hemolymph trehalose homeostasis in the silkworm, Bombyx mori” (Scientific Reports, 2024).

Where no end group is shown, it is not given here. [ ]: non-standard residue; d: D form. sY = N[C@@H](Cc1ccc(OS(=O)(=O)O)cc1)C(=O)O

The nature of assay [1]: Hemolymph trehalose determination. Type of assay: in vivo, Bombyx mori. The procedure:
Silkworm larvae were anesthetized by cooling on ice, after which hemolymph was collected using a micropipette from an incision made at the abdominal leg. Approximately 5 mg of phenylthiourea (to achieve a final concentration of 2.5% w/v) was added to the hemolymph in a 1.5 ml Eppendorf tube to inhibit clotting. Hemolymph samples from 10 insects were then centrifuged at 12,000 rpm for 10 min at 4 °C to sediment any particulates. For trehalose measurement, the hemolymph underwent pretreatment with trehalase (Megazyme, Chicago, US), following the manufacturer’s protocol. Subsequently, the sugar concentration in the hemolymph was assessed using a glucose oxidase–peroxidase kit (Shanghai Rongsheng Biotech, China).

For assay [2], the system named is BNGR-A9. The assay can be described thus: cAMP ELISA in BNGR-A9-expressing HEK293 cells. The note with it: 1 μM, 15 min, IBMX pretreatment (300 μM, 1 h). Type of assay: cell-based, Bombyx mori. The procedure: 1. Measurement of cAMP accumulation
Cells were seeded in 24-well plates and incubated overnight. Prior to treatment, cells
were pre-treated with the phosphodiesterase inhibitor IBMX (300 μM) for 1 hour.
Subsequently, cells were treated with different Bombyx neuropeptides for 15 minutes.
The reaction was terminated by removing the medium, followed by the addition of
ice-cold PBS and a single wash. Cell lysis was performed, and cAMP formation was
assessed using a competitive binding technique based on an enzyme-linked
immunosorbent assay (ELISA) (Parameter cAMP assay, R&D, Minneapolis, USA)
following the manufacturer's instructions. The results were expressed as the fold
change in cAMP concentration compared to the control concentration in the
2. Determination of Glucose of hemolymph
Silkworm larvae were anesthetized by cooling on ice, after which hemolymph was
collected using a micropipette from an incision made at the abdominal leg.
Approximately 5 mg of phenylthiourea (to achieve a final concentration of 2.5% w/v)
was added to the hemolymph in a 1.5 ml Eppendorf tube to inhibit clotting.
Hemolymph samples from 10 insects were then centrifuged at 12,000 rpm for 10
minutes at 4 °C to sediment any particulates. The glucose concentration in the
hemolymph was determined using a glucose oxidase-peroxidase kit (Shanghai […]
by stimulation with 1μM BmnsSK or BmsSK for 15 min, and the cAMP level was determined […]
A general note: ELISA stands for enzyme-linked immunosorbent assay.

The subject of assay [3] is ERK phosphorylation in silkworm brains. The assay can be described thus: ERK phosphorylation (western blot), silkworm larval brains ex vivo. On the set-up: species or system Bombyx mori. The procedure: HEK293 cells with Flag-BNGR-A9 were exposed to 100 nM BmsSK for different durations and then lysed using RIPA buffer (Beyotime, China). For ex vivo assays, brains from 5th instar silkworm larvae were treated with BmsSK (100 nM) for 1, 2, or 8 h, either with a pre-treatment of Gαq inhibitor FR900359 for 30 min or without it. After treatment, samples were lysed, homogenized, and their protein concentrations were determined with a BCA protein kit (Takara, Japan). For western blot analysis, equal amounts of protein lysate were used. Protein expression was analyzed using specific primary antibodies: rabbit monoclonal antibodies for total and phosphorylated ERK from Cell Signaling Technology (MA, USA).
Background: In western blotting, separated proteins are transferred to a membrane and probed.

Assay [4] deals with BNGR-A9. The assay can be described thus: CRE-driven luciferase reporter assay, BNGR-A9. The note with it: 4 h, at least three independent experiments; for EC50: dose-response. Type of assay: cell-based, Bombyx mori. An excerpt:
The entire coding region of BNGR-A9 (NM_001134272.1) was obtained by PCR and subsequently cloned into pEGFP-N1 and pCMV-Flag vectors using the primers listed in Table S1. The Flag-BNGR-A9 construct was generated for functional assays, including CRE-luciferase, calcium mobilization, and ERK phosphorylation assays, while BNGR-A9-EGFP was created for receptor visualization purposes. Additionally, for expression in the BmN cell system, the BNGR-A9 gene was inserted into the pIZT/V5-His vector. All constructs were validated by DNA sequencing.
HEK293 cells were cultured with Dulbecco’s Modified Eagle’s Medium (Gibco, NY, USA) supplied with 10% Fetal bovine serum (Gibco, NY, USA) in a 37 °C humidified incubator containing 5% CO2. BmN cells were maintained in TC 100 insect medium (AppliChem, Darmstadt, Germany) supplied with 10% Fetal bovine serum in a 28 °C incubator. Both HEK293 and BmN cells were transfected with X-tremeGENE (Roche, Mannheim, Germany) according to the manufacturer’s instruction.
HEK293 and BmN cells were transfected with the different Bombyx receptors (Flag-BNGR-A9, -A24, -A32, or A33 for HEK293 cells, and pIZT-BNGR-A9, -A24, -A32, or A33 for BmN cells) along with the corresponding CRE-reporter plasmid. When cell confluence reached 90–95%, they were treated with various concentrations of Bombyx mori neuropeptides, with or without forskolin. Following a 4-h incubation period, cells were lysed, and luciferase activities were determined using a firefly luciferase kit (Beyotime, Shanghai, China).
Data analysis was conducted using GraphPad Prism (San Diego, CA), with results presented as mean ± SEM. Statistical significance was assessed through Student’s t-test or two-way ANOVA with multiple comparisons, with p values below 0.05 denoted as significant (*p < 0.05, **p < 0.01, ***p < 0.001). Dose–response curves were generated via non-linear curve fitting. Adobe Photoshop was used to process images, ensuring uniform brightness and contrast settings across all conditions. All images and data provided represent findings from a minimum of three independent experiments.
(Reporter assays use an easily measured gene product as a stand-in for the process of interest.)

As usually defined, the EC50 is the concentration at which the effect is half-maximal. Higher therefore signals a need for much substance. For “BmsSK: Bombyx mori sulfated-sulfakinin, synthetic; sulfated version of GDDTFDD^8YGHLRF-NH2 (GDDTFDD[sY]GHLRF-NH2; N-terminus assumed; SMILES CC(C)C[C@H](NC(=O)[C@H](Cc1c[nH]cn1)NC(=O)CNC(=O)[C@H](Cc1ccc(OS(=O)(=O)O)cc1)NC(=O)[C@H](CC(=O)O)NC(=O)[C@H](CC(=O)O)NC(=O)[C@H](Cc1ccccc1)NC(=O)[C@@H](NC(=O)[C@H](CC(=O)O)NC(=O)[C@H](CC(=O)O)NC(=O)CN)[C@@H](C)O)C(=O)N[C@@H](CCCNC(=N)N)C(=O)N[C@@H](Cc1ccccc1)C(N)=O)”, the Hemolymph trehalose level result is on record as “significant increase in trehalose levels” in assay [1] (BmsSK final 10 nM, 24 h after EGFP dsRNA injection, hemolymph collected 24 h later) and “significant rise in circulating hemolymph trehalose” in assay [1] (following BmsSK injection (restated in discussion)). Besides, in the assay on BNGR-A9 [2], the “Intracellular cAMP level” value was “remained unchanged”. Besides, the “Time of peak ERK1/2 phosphorylation” value in assay [3] (5th instar silkworm brains, 100 nM BmsSK for 1, 2 or 8 h) was determined as 2 h. Moreover, the ERK1/2 phosphorylation result in assay [3] (silkworm brains, 100 nM BmsSK) was “quick and dose-dependent increase in ERK1/2 phosphorylation”. In addition, the half-maximal effective concentration (EC50) stood at 60 nM at BNGR-A9 [4] (BmN cells stably expressing BNGR-A9) and 73.3 nM at BNGR-A9 [4] (HEK293 cells stably expressing BNGR-A9). Also, in the assay with BNGR-A9 [4] (HEK293 and BmN cells, 1 μM peptide, with or without forskolin (5 μM)), the “Activation of BNGR-A9 (CRE-driven luciferase activity)” value is recorded as “could activate BNGR-A9”.
